Reference: patent US8530492B2, “Oligomer-protein tyrosine kinase inhibitor conjugates” (Nektar Therapeutics, priority 2009, dated 2013)

Test system: Caco-2 cells
Assay: Caco-2 permeability (bi-directional; pH 7.4/pH 7.4)
Assay type: in vitro ADME, human
Settings: Caco-2, 10 μM, 120 minutes
Experimental: Caco-2 cells are used as an in vitro model of the human intestinal epithelium and permit assessment of the intestinal permeability of potential drugs. Test compound is added to either the apical or basolateral side of a confluent monolayer of Caco-2 cells and permeability is measured by monitoring the appearance of the test compound on the opposite side of the membrane using LC-MS/MS. Apparent permeability (Papp) coefficients, efflux ratio for the test compound and recovery values were determined.
To measure the permeability of test compound in the apical to basolateral (A-B) and basolateral to apical (B-A) direction across Caco-2 cells.
Caco-2 cells obtained from the ATCC are used between passage numbers 40-60. Cells are seeded on to Millipore Multiscreen Caco-2 plates at 1×10^5 cells/cm^2. They are cultured for 20 days in DMEM and media is changed every two or three days. On day 20 the permeability study is performed.
On day 20, the monolayers are prepared by rinsing both basolateral and apical surfaces twice with HBSS at 37° C. Cells are then incubated with HBSS in both apical and basolateral compartments for 40 min to stabilize physiological parameters. HBSS is then removed from the apical compartment and replaced with test compound dosing solutions. […] The fluorescent integrity marker lucifer yellow is also included in the dosing solution. Analytical standards are made from dosing solutions. The apical compartment inserts are then placed into ‘companion’ plates containing fresh HBSS. For basolateral to apical (B-A) permeability determination the experiment is initiated by replacing buffer in the inserts then placing them in companion plates containing dosing solutions. At 120 minutes the companion plate is removed and apical and basolateral samples diluted for analysis by LC-MS/MS. Test compound permeability was assessed in duplicate. On each plate, compounds of known permeability characteristics were run as controls.
Test and control compounds were quantified by LC-MS/MS cassette analysis using a 5-point calibration with appropriate dilution of the samples. Cyprotex generic analytical conditions were used. The starting concentration (C0) and experimental recovery were calculated from both apical and basolateral compartment concentrations.
The integrity of the monolayers throughout the experiment was checked by monitoring lucifer yellow permeation using fluorimetric analysis. Lucifer yellow permeation is low if monolayers have not been damaged. […] If lucifer yellow Papp values are above QC limits in both replicate wells for a test compound, the compound was re-tested.
Data Analysis: The permeability coefficient for each compound (Papp) is calculated from the following equation:
[formula] wherein dQ/dt is the rate of permeation of the drug across the cells, C0 is the donor compartment concentration at time zero and A is the area of the cell monolayer. C0 is obtained from analysis of donor and receiver compartments at the end of the incubation period. It is assumed that all of the test compound measured after 120 minutes incubation was initially present in the donor compartment at 0 minutes. An efflux ratio (ER) is derived as follows:
Talinolol (a known P-gp substrate) is also included as a control compound to assess whether functional P-gp is present in the Caco-2 cell monolayer.

Compared with `COCCOCCOCCOCCOCCOCCOCCOCCOCCN1CCN(Cc2ccc(C(=O)Nc3ccc(C)c(Nc4nccc(-c5cccnc5)n4)c3)cc2)CC1` [mPEG9-N′-Imatinib], `COCCOCCOCCOCCOCCOCCOCCN1CCN(Cc2ccc(C(=O)Nc3ccc(C)c(Nc4nccc(-c5cccnc5)n4)c3)cc2)CC1` [mPEG7-N′-Imatinib] is higher in Permeability (apparent permeability, Papp (A-B)): 0.5 ± 0.2 nm/s for the first, 3 ± 0.1 nm/s for the second.

First: COCCOCCOCCNCc1ccc(C(=O)Nc2ccc(C)c(Nc3nccc(-c4cccnc4)n3)c2)cc1 [mPEG3-N-Imatinib]
Second: COCCOCCOCCOCCOCCNCc1ccc(C(=O)Nc2ccc(C)c(Nc3nccc(-c4cccnc4)n3)c2)cc1 [mPEG5-N-Imatinib]
The Permeability (apparent permeability, Papp (A-B)) of the first is higher: 6 ± 0.7 nm/s for the first, 0.5 ± 0.2 nm/s for the second.

First: COCCOCCOCCOCCOCCOCCOCCOCCOCCNCc1ccc(C(=O)Nc2ccc(C)c(Nc3nccc(-c4cccnc4)n3)c2)cc1 [mPEG9-N-Imatinib]
Second: COCCOCCOCCOCCOCCOCCOCCNCc1ccc(C(=O)Nc2ccc(C)c(Nc3nccc(-c4cccnc4)n3)c2)cc1
The Permeability (apparent permeability, Papp (A-B)) of the first is lower: 0.1 ± 0.04 nm/s for the first, 0.4 ± 0.1 nm/s for the second.

Going from `COCCOCCOCCOCCOCCN1CCN(Cc2ccc(C(=O)Nc3ccc(C)c(Nc4nccc(-c5cccnc5)n4)c3)cc2)CC1` [mPEG5-N′-Imatinib] to `COCCOCCOCCN1CCN(Cc2ccc(C(=O)Nc3ccc(C)c(Nc4nccc(-c5cccnc5)n4)c3)cc2)CC1` [mPEG3-N′-Imatinib], the Permeability (apparent permeability, Papp (A-B)) rises from 10 ± 2 nm/s to 40 ± 8 nm/s.
